Experimental data reported in patent US5213974A, “Fermentation process for preparing antibiotics mureidomycins A, B, C and D” (priority 1986, dated 1993).
≈ marks a conversion by molar mass, not a printed value.

Assays:
[1] = test system: gram-negative bacteria, particularly bacteria of the genus Pseudomonas; assay: Antibacterial activity, summary of the MIC data; type: cell-based
Method: (§1) The minimal inhibitory concentrations (MIC) of mureidomycins A, B, C and D against various gram-positive and gram-negative bacteria were determined by the two-fold agar dilution method, using a Mueller-Hinton agar medium (produced by Difco).
From the above data, mureidomycins A, B, C and D are active against gram-negative bacteria, particularly against bacteria of the genus Pseudomonas.

[2] = test system: Pseudomonas aeruginosa SANK 75775; assay: MIC, two-fold agar dilution method, Mueller-Hinton agar; type: cell-based
Method: as §1

[3] = test system: Staphylococcus aureus FDA 209P JC-1; assay: as above; type: cell-based
Method: as §1

[4] = test system: Proteus mirabilis SANK 70461; assay: as above; type: cell-based
Method: as §1

[5] = test system: Pseudomonas aeruginosa SANK 71873; assay: as above; type: cell-based
Method: as §1

[6] = test system: Pseudomonas aeruginosa SANK 75175; assay: as above; type: cell-based
Method: as §1

[7] = test system: Pseudomonas aeruginosa SANK 73375; assay: as above; type: cell-based
Method: as §1

[8] = test system: Pseudomonas aeruginosa NCTC 10490; assay: as above; type: cell-based
Method: as §1

[9] = test system: Pseudomonas acidovorans SANK 72782; assay: as above; type: cell-based
Method: as §1

[10] = test system: Klebsiella pneumoniae PCI 602; assay: as above; type: cell-based
Method: as §1

[11] = test system: Esherichia coli NIHJ JC-2; assay: as above; type: cell-based
Method: as §1

[12] = test system: Pseudomonas aeruginosa SANK 70479; assay: as above; type: cell-based
Method: as §1

[13] = test system: Pseudomonas aeruginosa ATCC 13388; assay: as above; type: cell-based
Method: as §1

[14] = test system: Pseudomonas aeruginosa SANK 73279; assay: as above; type: cell-based
Method: as §1

[15] = test system: Pseudomonas aeruginosa SANK 70970; assay: as above; type: cell-based
Method: as §1

[16] = test system: Serratia marcescens SANK 73060; assay: as above; type: cell-based
Method: as §1

[17] = test system: Pseudomonas aeruginosa SANK 70579; assay: as above; type: cell-based
Method: as §1

[18] = test system: Pseudomonas aeruginosa SANK 73379; assay: as above; type: cell-based
Method: as §1

[19] = test system: Pseudomonas aeruginosa NRRLB 1000; assay: as above; type: cell-based
Method: as §1

[20] = test system: mice; assay: Toxicity in mice, intravenous; type: in vivo
[21] = Solubility in water and organic solvents; type: physicochemical

Compound	activity against gram-negative bacteria [1]	MIC [2] [µg/mL]	MIC [3] [µg/mL]	MIC [4] [µg/mL]	MIC [5] [µg/mL]	MIC [6] [µg/mL]	MIC [7] [µg/mL]	MIC [8] [µg/mL]	MIC [9] [µg/mL]	MIC [10] [µg/mL]	MIC [11] [µg/mL]	MIC [12] [µg/mL]	MIC [13] [µg/mL]	MIC [14] [µg/mL]	MIC [15] [µg/mL]	MIC [16] [µg/mL]	MIC [17] [µg/mL]	MIC [18] [µg/mL]	MIC [19] [µg/mL]	Solubility ([21]; acetone)	also measured
CSCC[C@H](NC(=O)NC(Cc1cccc(O)c1)C(=O)O)C(=O)N[C@@H](C(=O)NC=C1CC(O)C(n2ccc(=O)[nH]c2=O)O1)C(C)N(C)C(=O)[C@@H](N)Cc1cccc(O)c1 (some centres unmarked) [Mureidomycin A, mureidomycin A]	active	6.25 (≈ 7.43 µM)	200 (≈ 238 µM)	> 200	6.25 (≈ 7.43 µM)	25 (≈ 29.7 µM)	12.5 (≈ 14.9 µM)	0.4 (≈ 0.476 µM)	> 200	25 (≈ 29.7 µM)	> 200	6.25 (≈ 7.43 µM)	25 (≈ 29.7 µM)	12.5 (≈ 14.9 µM)	12.5 (≈ 14.9 µM)	> 200	< 0.1	100 (≈ 119 µM)	25 (≈ 29.7 µM)	slightly soluble	toxicity ([20]; mice, 400 mg/kg intravenously): No toxicity was observed; Solubility ([21]; benzene): insoluble; Solubility ([21]; chloroform): insoluble; Solubility ([21]; ethyl acetate): insoluble; Solubility ([21]; methanol): Soluble; Solubility ([21]; water): Soluble
CSCC[C@H](NC(=O)NC(Cc1cccc(O)c1)C(=O)O)C(=O)N[C@@H](C(=O)N/C=C1\CC(O)C(N2CCC(=O)NC2=O)O1)C(C)N(C)C(=O)[C@@H](N)Cc1cccc(O)c1 (some centres unmarked) [Mureidomycin B, mureidomycin B]	active	200 (≈ 237 µM)	> 200	> 200	25 (≈ 29.7 µM)	50 (≈ 59.3 µM)	25 (≈ 29.7 µM)	0.8 (≈ 0.949 µM)	200 (≈ 237 µM)	25 (≈ 29.7 µM)	> 200	12.5 (≈ 14.8 µM)	50 (≈ 59.3 µM)	25 (≈ 29.7 µM)	25 (≈ 29.7 µM)	> 200	0.2 (≈ 0.237 µM)	200 (≈ 237 µM)	50 (≈ 59.3 µM)	slightly soluble	toxicity ([20]; mice, 400 mg/kg intravenously): No toxicity was observed; Solubility ([21]; benzene): insoluble; Solubility ([21]; chloroform): insoluble; Solubility ([21]; ethyl acetate): insoluble; Solubility ([21]; methanol): Soluble; Solubility ([21]; water): Soluble
mureidomycin D	active	6.25	> 200	> 200	6.25	12.5	6.25	1.56	100	25	> 200	6.25	6.25	6.25	3.13	> 200	0.2	50	6.25	slightly soluble	toxicity ([20]; mouse, in vivo, iv, 400 mg/kg): No toxicity was observed; Solubility ([21]; benzene): insoluble; Solubility ([21]; chloroform): insoluble; Solubility ([21]; ethyl acetate): insoluble; Solubility ([21]; methanol): Soluble; Solubility ([21]; water): Soluble
CSCC[C@H](NC(=O)NC(Cc1cccc(O)c1)C(=O)O)C(=O)N[C@@H](C(=O)NC=C1CC(O)C(n2ccc(=O)[nH]c2=O)O1)C(C)N(C)C(=O)[C@H](Cc1cccc(O)c1)NC(=O)CN (some centres unmarked) [Mureidomycin C, mureidomycin C]	active	1.56 (≈ 1.74 µM)	> 200	> 200	1.56 (≈ 1.74 µM)	3.13 (≈ 3.49 µM)	3.13 (≈ 3.49 µM)	0.4 (≈ 0.445 µM)	> 200	12.5 (≈ 13.9 µM)	> 200	1.56 (≈ 1.74 µM)	3.13 (≈ 3.49 µM)	1.56 (≈ 1.74 µM)	1.56 (≈ 1.74 µM)	> 200	< 0.1	6.25 (≈ 6.96 µM)	3.13 (≈ 3.49 µM)	slightly soluble	toxicity ([20]; mice, 400 mg/kg intravenously): No toxicity was observed; Solubility ([21]; benzene): insoluble; Solubility ([21]; chloroform): insoluble; Solubility ([21]; ethyl acetate): insoluble; Solubility ([21]; methanol): Soluble; Solubility ([21]; water): Soluble
